# Experimental data from patent US20060069132A1, “Azolecarboxamide herbicides” (priority 2004, published 2006).
# Columns and labels:
# barnyardgrass [1] = assay: Test B pre-/postemergence herbicide test; format: in vivo, Echinochloa crus-galli; conditions: for Barnyardgrass plant response rating (0 to 100 scale) / Plant response rating, Barnyardgrass: 0 = no effect, 100 = complete control, preemergence; for Barnyardgrass plant response rating: postemergence
# Method in brief: (§1)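 Flooded paddy rice and barnyardgrass were treated at the 2-leaf stage; upland plantings received compound either on sown seed or on 1- to 4-leaf seedlings. All were kept 13–15 days in a greenhouse and scored visually, 0–100, relative to untreated plants.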
# Surinam grass = assay: Test B pre-/postemergence herbicide test; format: in vivo, Urochloa decumbens; conditions: for Surinam Grass plant response rating (0 to 100 scale) / Plant response rating, Surinam Grass: 0 = no effect, 100 = complete control, preemergence; for Surinam Grass plant response rating: postemergence
# Method in brief: (§2)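 Evaluation is visual, comparing treated with control plants on a scale where 0 means no effect and 100 means full control. Treatments were preemergence, or postemergence on seedlings 2–18 cm tall, and held 13–15 days in the greenhouse.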
# cocklebur = assay: Test B pre-/postemergence herbicide test; format: in vivo, Xanthium strumarium; conditions: for Cocklebur plant response rating (0 to 100 scale) / Plant response rating, Cocklebur: 0 = no effect, 100 = complete control, preemergence; for Cocklebur plant response rating: postemergence
# Method in brief: as §1
# corn = assay: Test B pre-/postemergence herbicide test; format: in vivo, Zea mays; conditions: for Corn plant response rating (0 to 100 scale) / Plant response rating, Corn: 0 = no effect, 100 = complete control, preemergence; for Corn plant response rating: postemergence
# Method in brief: as §2
# large crabgrass = assay: Test B pre-/postemergence herbicide test; format: in vivo, Digitaria sanguinalis; conditions: for Crabgrass, Large plant response rating (0 to 100 scale) / Plant response rating, Crabgrass, Large: 0 = no effect, 100 = complete control, preemergence; for Crabgrass, Large plant response rating: postemergence
# Method in brief: as §2
# giant foxtail = assay: Test B pre-/postemergence herbicide test; format: in vivo, Setaria faberi; conditions: for Foxtail, Giant plant response rating (0 to 100 scale) / Plant response rating, Foxtail, Giant: 0 = no effect, 100 = complete control, preemergence; for Foxtail, Giant plant response rating: postemergence
# Method in brief: as §2
# morningglory = assay: Test B pre-/postemergence herbicide test; format: in vivo, Ipomoea coccinea; conditions: for Morningglory plant response rating (0 to 100 scale) / Plant response rating, Morningglory: 0 = no effect, 100 = complete control, preemergence; for Morningglory plant response rating: postemergence
# Method in brief: as §1
# pigweed = assay: Test B pre-/postemergence herbicide test; format: in vivo, Amaranthus retroflexus; conditions: for Pigweed plant response rating (0 to 100 scale) / Plant response rating, Pigweed: 0 = no effect, 100 = complete control, preemergence; for Pigweed plant response rating: postemergence
# Method in brief: as §2
# velvetleaf = assay: Test B pre-/postemergence herbicide test; format: in vivo, Abutilon theophrasti; conditions: for Velvetleaf plant response rating: postemergence; for Plant response rating, Velvetleaf: 0 = no effect, 100 = complete control, preemergence
# Method in brief: as §2
# blackgrass = assay: Test B postemergence herbicide test; format: in vivo, Alopecurus myosuroides; conditions: postemergence
# Method in brief: (§3)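 After treating 2-leaf paddy plants or 2–18 cm postemergence plants (1 to 4 leaves) with formulated chemical, researchers kept them in a greenhouse for 13–15 days. Effects were judged visually versus controls: 0 indicates none, 100 total control.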
# wheat = assay: Test B postemergence herbicide test; format: in vivo, Triticum aestivum; design: key to Wheat plant response rating: 0 = no effect, 100 = complete control; conditions: postemergence
# Method in brief: (§4)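 Treated at 2-leaf (paddy) or 1–4-leaf, 2–18 cm (postemergence); greenhouse 13–15 d; visual score vs control, 0 none to 100 complete control; dash = not tested.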
# wild oat = assay: Test B postemergence herbicide test; format: in vivo, Avena fatua; conditions: postemergence
# Method in brief: as §4
# rice = assay: Test B flooded paddy test; format: in vivo, Oryza sativa; conditions: 1000 g ai/ha, scale 0 to 100 (0 no effect, 100 complete control)
# Method in brief: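 Each value is a visual 0–100 response rating taken against controls 13 to 15 days after treatment in the greenhouse. Plants received formulated chemical postemergence at the 1- to 4-leaf stage or, in flooded paddy, at the 2-leaf stage.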
# [2] = tested on: small flower umbrella sedge; assay: Test B flooded paddy test; format: in vivo, Cyperus difformis; conditions: 1000 g ai/ha, scale 0 to 100 (0 no effect, 100 complete control)
# Method in brief: as §3
# ducksalad = assay: Test B flooded paddy test; format: in vivo, Heteranthera limosa; conditions: 1000 g ai/ha, scale 0 to 100 (0 no effect, 100 complete control)
# Method in brief: as §3
# barnyardgrass [3] = assay: Test B flooded paddy test; format: in vivo, Echinochloa crus-galli; conditions: 1000 g ai/ha, scale 0 to 100 (0 no effect, 100 complete control)
# Method in brief: as §3
# [4] = 125 g ai/ha, visual rating, scale 0 (no effect) to 100 (complete control)
# [5] = 500 g ai/ha, scale 0 to 100, 0 is no effect, 100 is complete control
smiles,measurement,setting,value
CCn1nc(C2(C)CC2)cc1C(=O)Nc1cc(C(=O)N(C)C)ccc1F [Compound 299],Barnyardgrass plant response rating (0 to 100 scale),barnyardgrass [1]; 125 g ai/ha,90
same,Barnyardgrass plant response rating,barnyardgrass [1]; [4],10
same,"Plant response rating, Barnyardgrass","barnyardgrass [1]; 500 g ai/ha, visual rating",100
same,Barnyardgrass plant response rating,barnyardgrass [1]; [5],90
same,Surinam Grass plant response rating (0 to 100 scale),Surinam grass; 125 g ai/ha,100
same,Surinam Grass plant response rating,Surinam grass; [4],20
same,"Plant response rating, Surinam Grass","Surinam grass; 500 g ai/ha, visual rating",100
same,Surinam Grass plant response rating,Surinam grass; [5],80
same,Cocklebur plant response rating (0 to 100 scale),cocklebur; 125 g ai/ha,20
same,Cocklebur plant response rating,cocklebur; [4],20
same,"Plant response rating, Cocklebur","cocklebur; 500 g ai/ha, visual rating",60
same,Cocklebur plant response rating,cocklebur; [5],70
same,Corn plant response rating (0 to 100 scale),corn; 125 g ai/ha,50
same,Corn plant response rating,corn; [4],0
same,"Plant response rating, Corn","corn; 500 g ai/ha, visual rating",90
same,Corn plant response rating,corn; [5],20
same,"Crabgrass, Large plant response rating (0 to 100 scale)",large crabgrass; 125 g ai/ha,100
same,"Crabgrass, Large plant response rating",large crabgrass; [4],10
same,"Plant response rating, Crabgrass, Large","large crabgrass; 500 g ai/ha, visual rating",100
same,"Crabgrass, Large plant response rating",large crabgrass; [5],90
same,"Foxtail, Giant plant response rating (0 to 100 scale)",giant foxtail; 125 g ai/ha,100
same,"Foxtail, Giant plant response rating",giant foxtail; [4],10
same,"Plant response rating, Foxtail, Giant","giant foxtail; 500 g ai/ha, visual rating",100
same,"Foxtail, Giant plant response rating",giant foxtail; [5],80
same,Morningglory plant response rating (0 to 100 scale),morningglory; 125 g ai/ha,40
same,Morningglory plant response rating,morningglory; [4],70
same,"Plant response rating, Morningglory","morningglory; 500 g ai/ha, visual rating",100
same,Morningglory plant response rating,morningglory; [5],80
same,Pigweed plant response rating (0 to 100 scale),pigweed; 125 g ai/ha,100
same,Pigweed plant response rating,pigweed; [4],90
same,"Plant response rating, Pigweed","pigweed; 500 g ai/ha, visual rating",100
same,Pigweed plant response rating,pigweed; [5],100
same,Velvetleaf plant response rating,velvetleaf; [4],60
same,"Plant response rating, Velvetleaf","velvetleaf; 500 g ai/ha, visual rating",100
same,Velvetleaf plant response rating,velvetleaf; [5],100
same,Blackgrass plant response rating,blackgrass; [4],20
same,Blackgrass plant response rating,blackgrass; [5],50
same,Wheat plant response rating,wheat; [4],20
same,Wheat plant response rating,wheat; [5],30
same,"Oat, Wild plant response rating",wild oat; [4],20
same,"Oat, Wild plant response rating",wild oat; [5],40
same,Rice plant response rating,rice,90
same,"Sedge, Umbrella plant response rating",[2],90
same,Ducksalad plant response rating,ducksalad,90
same,Barnyardgrass plant response rating,barnyardgrass [3],90
CCn1nc(C(C)(C)C)cc1C(=S)Nc1cc(C(=S)N(C)C)ccc1F [Compound 305],Barnyardgrass plant response rating (0 to 100 scale),barnyardgrass [1]; 125 g ai/ha,80
same,Barnyardgrass plant response rating,barnyardgrass [1]; [4],0
same,"Plant response rating, Barnyardgrass","barnyardgrass [1]; 500 g ai/ha, visual rating",90
same,Barnyardgrass plant response rating,barnyardgrass [1]; [5],0
same,Surinam Grass plant response rating (0 to 100 scale),Surinam grass; 125 g ai/ha,80
same,Surinam Grass plant response rating,Surinam grass; [4],0
same,"Plant response rating, Surinam Grass","Surinam grass; 500 g ai/ha, visual rating",100
same,Surinam Grass plant response rating,Surinam grass; [5],20
same,Cocklebur plant response rating (0 to 100 scale),cocklebur; 125 g ai/ha,50
same,Cocklebur plant response rating,cocklebur; [4],10
same,"Plant response rating, Cocklebur","cocklebur; 500 g ai/ha, visual rating",70
same,Cocklebur plant response rating,cocklebur; [5],10
same,Corn plant response rating (0 to 100 scale),corn; 125 g ai/ha,10
same,Corn plant response rating,corn; [4],70
same,"Plant response rating, Corn","corn; 500 g ai/ha, visual rating",60
same,Corn plant response rating,corn; [5],70
same,"Crabgrass, Large plant response rating (0 to 100 scale)",large crabgrass; 125 g ai/ha,90
same,"Crabgrass, Large plant response rating",large crabgrass; [4],0
same,"Plant response rating, Crabgrass, Large","large crabgrass; 500 g ai/ha, visual rating",100
same,"Crabgrass, Large plant response rating",large crabgrass; [5],0
same,"Foxtail, Giant plant response rating (0 to 100 scale)",giant foxtail; 125 g ai/ha,80
same,"Foxtail, Giant plant response rating",giant foxtail; [4],20
same,"Plant response rating, Foxtail, Giant","giant foxtail; 500 g ai/ha, visual rating",100
same,"Foxtail, Giant plant response rating",giant foxtail; [5],20
same,Morningglory plant response rating (0 to 100 scale),morningglory; 125 g ai/ha,0
same,Morningglory plant response rating,morningglory; [4],0
same,"Plant response rating, Morningglory","morningglory; 500 g ai/ha, visual rating",0
same,Morningglory plant response rating,morningglory; [5],0
same,Pigweed plant response rating (0 to 100 scale),pigweed; 125 g ai/ha,100
same,Pigweed plant response rating,pigweed; [4],0
same,"Plant response rating, Pigweed","pigweed; 500 g ai/ha, visual rating",100
same,Pigweed plant response rating,pigweed; [5],70
same,Velvetleaf plant response rating,velvetleaf; [4],20
same,"Plant response rating, Velvetleaf","velvetleaf; 500 g ai/ha, visual rating",100
same,Velvetleaf plant response rating,velvetleaf; [5],20
same,Blackgrass plant response rating,blackgrass; [4],20
same,Blackgrass plant response rating,blackgrass; [5],30
same,Wheat plant response rating,wheat; [4],0
same,Wheat plant response rating,wheat; [5],10
same,"Oat, Wild plant response rating",wild oat; [4],10
same,"Oat, Wild plant response rating",wild oat; [5],30
same,Rice plant response rating,rice,70
same,"Sedge, Umbrella plant response rating",[2],90
same,Ducksalad plant response rating,ducksalad,80
same,Barnyardgrass plant response rating,barnyardgrass [3],90
CCNC(=O)c1cccc(NC(=O)c2cc(C3(C)CC3)nn2CC)c1 [Compound 306],Barnyardgrass plant response rating (0 to 100 scale),barnyardgrass [1]; 125 g ai/ha,60
same,Barnyardgrass plant response rating,barnyardgrass [1]; [4],10
same,"Plant response rating, Barnyardgrass","barnyardgrass [1]; 500 g ai/ha, visual rating",90
same,Barnyardgrass plant response rating,barnyardgrass [1]; [5],10
same,Surinam Grass plant response rating (0 to 100 scale),Surinam grass; 125 g ai/ha,30
same,Surinam Grass plant response rating,Surinam grass; [4],10
same,"Plant response rating, Surinam Grass","Surinam grass; 500 g ai/ha, visual rating",90
same,Surinam Grass plant response rating,Surinam grass; [5],30
same,Cocklebur plant response rating (0 to 100 scale),cocklebur; 125 g ai/ha,0
same,Cocklebur plant response rating,cocklebur; [4],30
same,"Plant response rating, Cocklebur","cocklebur; 500 g ai/ha, visual rating",50
same,Cocklebur plant response rating,cocklebur; [5],70
same,Corn plant response rating (0 to 100 scale),corn; 125 g ai/ha,70
same,Corn plant response rating,corn; [4],30
same,"Plant response rating, Corn","corn; 500 g ai/ha, visual rating",100
same,Corn plant response rating,corn; [5],30
same,"Crabgrass, Large plant response rating (0 to 100 scale)",large crabgrass; 125 g ai/ha,100
same,"Crabgrass, Large plant response rating",large crabgrass; [4],10
same,"Plant response rating, Crabgrass, Large","large crabgrass; 500 g ai/ha, visual rating",100
same,"Crabgrass, Large plant response rating",large crabgrass; [5],50
same,"Foxtail, Giant plant response rating (0 to 100 scale)",giant foxtail; 125 g ai/ha,40
same,"Foxtail, Giant plant response rating",giant foxtail; [4],10
same,"Plant response rating, Foxtail, Giant","giant foxtail; 500 g ai/ha, visual rating",100
same,"Foxtail, Giant plant response rating",giant foxtail; [5],40
same,Morningglory plant response rating (0 to 100 scale),morningglory; 125 g ai/ha,10
same,"Plant response rating, Morningglory","morningglory; 500 g ai/ha, visual rating",10
same,Morningglory plant response rating,morningglory; [5],70
same,Pigweed plant response rating (0 to 100 scale),pigweed; 125 g ai/ha,100
same,Pigweed plant response rating,pigweed; [4],70
same,"Plant response rating, Pigweed","pigweed; 500 g ai/ha, visual rating",100
same,Pigweed plant response rating,pigweed; [5],100
same,Velvetleaf plant response rating,velvetleaf; [4],40
same,"Plant response rating, Velvetleaf","velvetleaf; 500 g ai/ha, visual rating",100
same,Velvetleaf plant response rating,velvetleaf; [5],60
same,Blackgrass plant response rating,blackgrass; [4],10
same,Blackgrass plant response rating,blackgrass; [5],30
same,Wheat plant response rating,wheat; [4],10
same,Wheat plant response rating,wheat; [5],20
same,"Oat, Wild plant response rating",wild oat; [4],20
same,"Oat, Wild plant response rating",wild oat; [5],30
same,Rice plant response rating,rice,60
same,"Sedge, Umbrella plant response rating",[2],80
same,Ducksalad plant response rating,ducksalad,80
same,Barnyardgrass plant response rating,barnyardgrass [3],80
